Five cell lines from the supplement of paper PMC10307832 can be followed below.

Common to all, as to experiment: relative viability (nuclei count vs DMSO), 5 days (fraction); higher = more cells survive
Compound in the experiment “VX-702 + Palbociclib”: NC(=O)c1ccc(N(C(N)=O)c2c(F)cccc2F)nc1-c1ccc(F)cc1F [VX-702] + CC(=O)c1c(C)c2cnc(Nc3ccc(N4CCNCC4)cn3)nc2n(C2CCCC2)c1=O [Palbociclib] (partner 0.5 µM)
The essentials: (§1)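 One day after seeding in 1536-well plates, lung cancer cell lines were dosed by pin tool. Dosing was either single-drug or a fixed anchor-drug dose plus five library-drug doses (not always all listed) in √10 steps. After 5 days, nuclei were stained in one fix-and-stain step and counted on 4× images, and relative viability is the nuclei count of treated wells over that of vehicle wells, given as the median of duplicate plates.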

Compound in the experiment “VX-702 + Tozasertib”: NC(=O)c1ccc(N(C(N)=O)c2c(F)cccc2F)nc1-c1ccc(F)cc1F [VX-702] + Cc1cc(Nc2cc(N3CCN(C)CC3)nc(Sc3ccc(NC(=O)C4CC4)cc3)n2)n[nH]1 [Tozasertib] (partner 0.1 µM)
The procedure, abridged:
as §1

Compound in the experiment “VX-702 + Alpelisib”: NC(=O)c1ccc(N(C(N)=O)c2c(F)cccc2F)nc1-c1ccc(F)cc1F [VX-702] + Cc1nc(NC(=O)N2CCC[C@H]2C(N)=O)sc1-c1ccnc(C(C)(C)C(F)(F)F)c1 [Alpelisib] (partner 2 µM)
The essentials: as §1

Compound in the experiment “VX-702 + Phenformin”: NC(=O)c1ccc(N(C(N)=O)c2c(F)cccc2F)nc1-c1ccc(F)cc1F [VX-702] + N=C(N)NC(=N)NCCc1ccccc1 [Phenformin] (partner 250 µM)
The essentials: as §1

As to NCI-H441, the relative viability in the experiment with VX-702 + Palbociclib (first compound 0.02 µM) worked out at 0.19; with VX-702 + Palbociclib (first compound 0.2 µM) it was 0.235; with VX-702 + Palbociclib (first compound 0.6325 µM) it was 0.204; with VX-702 + Palbociclib (first compound 2 µM), 0.162; with VX-702 + Tozasertib (first compound 0.02 µM), 0.722; with VX-702 + Tozasertib (first compound 0.2 µM) it was 0.546. Besides, the relative viability with VX-702 + Tozasertib (first compound 0.6325 µM) came out at 0.478; in the experiment with VX-702 + Tozasertib (first compound 2 µM), 0.641; with VX-702 + Alpelisib (first compound 0.02 µM), 0.847; with VX-702 + Alpelisib (first compound 0.2 µM) it was 0.537; in the experiment with VX-702 + Alpelisib (first compound 0.6325 µM), 0.727; with VX-702 + Alpelisib (first compound 2 µM), 0.759. The relative viability with VX-702 + Phenformin (first compound 0.02 µM) was 0.829; with VX-702 + Phenformin (first compound 0.2 µM), 0.992; in the experiment with VX-702 + Phenformin (first compound 0.6325 µM), 0.687; with VX-702 + Phenformin (first compound 2 µM), 0.918.

With NCI-H460, the relative viability with VX-702 + Palbociclib (first compound 0.02 µM) stood at 0.187; with VX-702 + Palbociclib (first compound 0.2 µM) it was 0.156; with VX-702 + Palbociclib (first compound 0.6325 µM), 0.21; in the experiment with VX-702 + Palbociclib (first compound 2 µM) it was 0.118; with VX-702 + Tozasertib (first compound 0.02 µM) it was 0.665; in the experiment with VX-702 + Tozasertib (first compound 0.2 µM) it was 0.54. The relative viability in the experiment with VX-702 + Tozasertib (first compound 0.6325 µM) turned out to be 0.614; with VX-702 + Tozasertib (first compound 2 µM), 0.159; with VX-702 + Alpelisib (first compound 0.02 µM) it was 0.465; with VX-702 + Alpelisib (first compound 0.2 µM), 0.46; with VX-702 + Alpelisib (first compound 0.6325 µM), 0.448; with VX-702 + Alpelisib (first compound 2 µM), 0.487. Also, the relative viability with VX-702 + Phenformin (first compound 0.02 µM) was determined as 0.532; in the experiment with VX-702 + Phenformin (first compound 0.2 µM), 0.551; with VX-702 + Phenformin (first compound 0.6325 µM) it was 0.608; with VX-702 + Phenformin (first compound 2 µM), 0.373.

NCI-H520: the relative viability is 0.229 in the experiment with VX-702 + Palbociclib (first compound 0.02 µM); 0.275 with VX-702 + Palbociclib (first compound 0.2 µM); 0.191 in the experiment with VX-702 + Palbociclib (first compound 0.6325 µM); 0.231 with VX-702 + Palbociclib (first compound 2 µM); 0.443 with VX-702 + Tozasertib (first compound 0.02 µM); 0.385 in the experiment with VX-702 + Tozasertib (first compound 0.2 µM). The relative viability stood at 0.434 with VX-702 + Tozasertib (first compound 0.6325 µM); 0.55 with VX-702 + Tozasertib (first compound 2 µM); 0.919 with VX-702 + Alpelisib (first compound 0.02 µM); 0.788 with VX-702 + Alpelisib (first compound 0.2 µM); 0.796 with VX-702 + Alpelisib (first compound 0.6325 µM); 1.06 with VX-702 + Alpelisib (first compound 2 µM). The relative viability in the experiment with VX-702 + Phenformin (first compound 0.02 µM) is 0.67; with VX-702 + Phenformin (first compound 0.2 µM), 0.648; with VX-702 + Phenformin (first compound 0.6325 µM) it was 0.525; in the experiment with VX-702 + Phenformin (first compound 2 µM) it was 0.535.

For NCI-H522, the relative viability was 1.12 with VX-702 + Palbociclib (first compound 0.02 µM); 0.988 in the experiment with VX-702 + Palbociclib (first compound 0.2 µM); 0.83 with VX-702 + Palbociclib (first compound 0.6325 µM); 1.08 in the experiment with VX-702 + Palbociclib (first compound 2 µM); 0.522 with VX-702 + Tozasertib (first compound 0.02 µM); 0.551 with VX-702 + Tozasertib (first compound 0.2 µM). Besides, the relative viability with VX-702 + Tozasertib (first compound 0.6325 µM) is 0.502; with VX-702 + Tozasertib (first compound 2 µM), 0.588; with VX-702 + Phenformin (first compound 0.02 µM) it was 0.584; with VX-702 + Phenformin (first compound 0.2 µM) it was 0.691; with VX-702 + Phenformin (first compound 0.6325 µM), 0.611; with VX-702 + Phenformin (first compound 2 µM) it was 0.672.

For NCI-H596, the relative viability amounted to 0.8 with VX-702 + Tozasertib (first compound 0.02 µM); 0.859 with VX-702 + Tozasertib (first compound 0.2 µM); 0.87 with VX-702 + Tozasertib (first compound 0.6325 µM); 1.09 with VX-702 + Tozasertib (first compound 2 µM); 0.437 with VX-702 + Alpelisib (first compound 0.02 µM); 0.436 with VX-702 + Alpelisib (first compound 0.2 µM). Further, the relative viability with VX-702 + Alpelisib (first compound 0.6325 µM) was determined as 0.509; with VX-702 + Alpelisib (first compound 2 µM), 0.426; with VX-702 + Phenformin (first compound 0.02 µM), 0.587; with VX-702 + Phenformin (first compound 0.2 µM) it was 0.749; with VX-702 + Phenformin (first compound 0.6325 µM), 0.797; in the experiment with VX-702 + Phenformin (first compound 2 µM), 0.742.
